Measured values taken from patent publication US4362743A, “Antibacterial monic acid esters” (Beecham Group Limited, priority 1980, dated 1982).
In brackets after ≈: the same amount, converted by molar mass. Where two headings read alike, the source gives them in different places.

Key:
[1] = system: M. suipneumoniae ATCC 25095; assay: Anti-mycoplasmal activity in vitro MIC; format: cell-based; conditions: Mesomycoplasma hyopneumoniae, ATCC25095, 144 h; M. suipneumoniae ATCC 25095; Friis broth, 0.9% agarose, 6 days 37° C.; read-out: M.I.C.
[2] = Serum binding by ultrafiltration; format: in vitro ADME; conditions: pig, porcine serum, 8 mcg/ml, read-out: % bound to pig serum (converted)
Experimental: Serum binding was assessed by ultrafiltration of porcine serum containing compounds at 8 mcg/ml, and through an Amicon CF50A ultrafiltration cone. Separation of ultrafiltrate was achieved by centrifugation. Unbound concentrations of compound were measured in the ultrafiltrate by microbiological assay (B. subtilis ATCC 6633) against standards prepared in saline.

[3] = system: M. suipneumoniae J2206/183b; assay: Anti-mycoplasmal activity in vitro MIC; format: cell-based; conditions: Mesomycoplasma hyopneumoniae, 144 h
[4] = system: M. pneumoniae ATCC 15492; assay: Anti-mycoplasmal activity in vitro MIC; format: cell-based; conditions: Mycoplasmoides pneumoniae, ATCC15492, 144 h
[5] = system: Staph. aureus Oxford; assay: Veterinary bacteria MIC; format: cell-based; conditions: Staphylococcus aureus, Diagnostic Sensitivity Test Agar, 18 hours 37° C.
Experimental: (§1) The values were determined using a two fold serial dilutions in Diagnostic Sensitivity Test Agar with an inoculum of 10^4 organisms and incubation for 18 hours at 37° C.

[6] = system: S. typhimurium S18; assay: Veterinary bacteria MIC; format: cell-based; conditions: Salmonella enterica, TYPHIMURIUM, 18 h
Experimental: as §1

[7] = system: Staph. aureus 152 (pen. sens); assay: Veterinary bacteria MIC; format: cell-based; conditions: Staphylococcus aureus, Diagnostic Sensitivity Test Agar, 18 hours 37° C.
Experimental: as §1

[8] = system: Past. multocida PA1; assay: Veterinary bacteria MIC; format: cell-based; conditions: Pasteurella multocida, Diagnostic Sensitivity Test Agar, 18 hours 37° C.
Experimental: as §1

[9] = system: Erysipelothrix rhusiopathiae NCTC 8163; assay: Veterinary bacteria MIC; format: cell-based
Experimental: as §1

[10] = system: Strep. dysgalactiae SPD1; assay: Veterinary bacteria MIC; format: cell-based; conditions: Streptococcus dysgalactiae, Diagnostic Sensitivity Test Agar, 18 hours 37° C.
Experimental: as §1

[11] = system: E. coli NCTC 10418; assay: Veterinary bacteria MIC; format: cell-based; conditions: Escherichia coli, NCTC10418, 18 h
Experimental: as §1

[12] = system: E. coli El; assay: Veterinary bacteria MIC; format: cell-based; conditions: Escherichia coli, 18 h
Experimental: as §1

[13] = system: Bord. brochiasetpica B09; assay: Veterinary bacteria MIC; format: cell-based; conditions: Diagnostic Sensitivity Test Agar, 18 hours 37° C.
Experimental: as §1

[14] = system: Past. multocida PA2; assay: Veterinary bacteria MIC; format: cell-based; conditions: Pasteurella multocida; Past. multocida PA2; Diagnostic Sensitivity Test Agar, 18 hours 37° C.; read-out: M.I.C.
Experimental: as §1

[15] = system: Corynebacterium pyogenes CY1; assay: Veterinary bacteria MIC; format: cell-based; conditions: Trueperella pyogenes, CY1, 18 h
Experimental: as §1

[16] = system: Bord. bronchiseptica B08; assay: Veterinary bacteria MIC; format: cell-based; conditions: Bordetella bronchiseptica
Experimental: as §1

[17] = system: S. dublin S7; assay: Veterinary bacteria MIC; format: cell-based; conditions: Salmonella enterica, S7, 18 h
Experimental: as §1

[18] = system: Strep. suis (Group D) SPS11; assay: Veterinary bacteria MIC; format: cell-based; conditions: Streptococcus suis
Experimental: as §1

[19] = system: Past. haemolytica PA5; assay: Veterinary bacteria MIC; format: cell-based; conditions: Mannheimia haemolytica
Experimental: as §1

[20] = system: Staph. aureus B4 (pen. resistant); assay: Veterinary bacteria MIC; format: cell-based; conditions: Staphylococcus aureus, Diagnostic Sensitivity Test Agar, 18 hours 37° C.
Experimental: as §1

[21] = system: Strep. uberis SPU1; assay: Veterinary bacteria MIC; format: cell-based; conditions: Streptococcus uberis, Diagnostic Sensitivity Test Agar, 18 hours 37° C.
Experimental: as §1

[22] = system: Strep. agalactiae SPA1; assay: Veterinary bacteria MIC; format: cell-based; conditions: Streptococcus agalactiae, Diagnostic Sensitivity Test Agar, 18 hours 37° C.
Experimental: as §1

[23] = system: M. bovigenitalium ATCC 14173; assay: Anti-mycoplasmal activity in vitro MIC; format: cell-based; conditions: 144 h
[24] = system: P. mirabilis 889; assay: Human bacteria MIC; format: cell-based
Experimental: (§2) The values were determined by serial dilutions in nutrient agar with 5% chocolated horse blood after incubations for 18 hours at 37° C.

[25] = system: Haemophilus influenzae Q1; assay: Human bacteria MIC; format: cell-based
Experimental: as §2

[26] = system: Neisseria catarralis 1502; assay: Human bacteria MIC; format: cell-based
Experimental: as §2

[27] = system: K. aerogenes A; assay: Human bacteria MIC; format: cell-based; conditions: Klebsiella aerogenes
Experimental: as §2

[28] = system: Strep Group B 2788; assay: Human bacteria MIC; format: cell-based
Experimental: as §2

[29] = system: Haemophilus influenzae Wy21; assay: Human bacteria MIC; format: cell-based
Experimental: as §2

[30] = system: Strep. faecalis I; assay: Human bacteria MIC; format: cell-based; conditions: Enterococcus faecalis, nutrient agar, 5% chocolated horse blood, 18 hours 37° C.
Experimental: as §2

[31] = system: Sarcina lutea 8340; assay: Human bacteria MIC; format: cell-based; conditions: Micrococcus luteus, 8340, 18 h
Experimental: as §2

[32] = Bord. bronchiseptica B08, Diagnostic Sensitivity Test Agar, 18 hours 37° C., read-out: M.I.C.
[33] = Past. haemolytica PA5, Diagnostic Sensitivity Test Agar, 18 hours 37° C., read-out: M.I.C.
[34] = Neisseria catarralis 1502, nutrient agar, 5% chocolated horse blood, 18 hours 37° C., read-out: M.I.C.
[35] = Strep Group B 2788, nutrient agar, 5% chocolated horse blood, 18 hours 37° C., read-out: M.I.C.
[36] = Haemophilus influenzae Wy21, nutrient agar, 5% chocolated horse blood, 18 hours 37° C., read-out: M.I.C.
[37] = Erysipelothrix rhusiopathiae, NCTC8163, 18 h
[38] = Haemophilus influenzae, Q1, 18 h

`C/C(=C\C(=O)OCCCC(=NO)c1ccccc1)C[C@@H]1OC[C@H](C[C@@H]2O[C@H]2[C@@H](C)[C@H](C)O)[C@@H](O)[C@H]1O` [Example 1, 4-Hydroxyimino-4-phenylbutyl monate A] showed an MIC [1] of 0.25 µg/mL (≈ 0.494 µM), a fraction unbound [2] of less than 0.08 and an MIC ([3]; M. suipneumoniae J2206/183b, Friis broth, 0.9% agarose, 6 days 37° C., read-out: M.I.C.) of 0.25 µg/mL (≈ 0.494 µM). The MIC ([4]; M. pneumoniae ATCC 15492, Friis broth, 0.9% agarose, 6 days 37° C., read-out: M.I.C.) was 2.5 µg/mL (≈ 4.94 µM), the MIC [5] was 0.625 µg/mL (≈ 1.24 µM) and the MIC [6] was greater than 80 µg/mL. It also gave an MIC [7] of 0.625 µg/mL (≈ 1.24 µM), an MIC [8] of 2.5 µg/mL (≈ 4.94 µM) and an MIC ([9]; NCTC8163, Erysipelothrix rhusiopathiae NCTC 8163, Diagnostic Sensitivity Test Agar, 18 hours 37° C., read-out: M.I.C.) of 20 µg/mL (≈ 39.6 µM). For the same compound, the MIC [10] was 0.625 µg/mL (≈ 1.24 µM), the MIC [11] was greater than 80 µg/mL and the MIC [12] was greater than 80 µg/mL. For the same compound, the MIC [13] was 20 µg/mL (≈ 39.6 µM), the MIC [14] was 0.625 µg/mL (≈ 1.24 µM) and the MIC [15] was greater than 80 µg/mL. For the same compound, the MIC [16, 32] was 40 µg/mL (≈ 79.1 µM), the MIC [17] was greater than 80 µg/mL and the MIC ([18]; 18 h) was 5 µg/mL (≈ 9.89 µM). It also gave an MIC [19, 33] of 10 µg/mL (≈ 19.8 µM), an MIC [20] of 0.625 µg/mL (≈ 1.24 µM) and an MIC [21] of 0.156 µg/mL (≈ 0.309 µM). For the same compound, the MIC [22] was 0.625 µg/mL (≈ 1.24 µM), the MIC [23] was 0.025 µg/mL (≈ 0.0494 µM) and the MIC ([24]; Proteus mirabilis, P. mirabilis 889, nutrient agar, 5% chocolated horse blood, 18 hours 37° C., read-out: M.I.C.) was greater than 100 µg/mL. The MIC ([25]; Haemophilus influenzae Q1, nutrient agar, 5% chocolated horse blood, 18 hours 37° C., read-out: M.I.C.) was 0.5 µg/mL (≈ 0.989 µM), the MIC [26, 34] was 0.2 µg/mL (≈ 0.396 µM) and the MIC ([27]; K. aerogenes A, nutrient agar, 5% chocolated horse blood, 18 hours 37° C., read-out: M.I.C.) was greater than 100 µg/mL. The MIC [28, 35] was 2.5 µg/mL (≈ 4.94 µM), the MIC [29, 36] was 0.5 µg/mL (≈ 0.989 µM) and the MIC [30] was greater than 100 µg/mL.
For `C/C(=C\C(=O)OCc1ccc(C=NO)o1)C[C@@H]1OC[C@H](C[C@@H]2O[C@H]2[C@@H](C)[C@H](C)O)[C@@H](O)[C@H]1O` [Example 7, 5-Hydroxyiminomethylfurfuryl monate A], the MIC [1] was 0.5 µg/mL (≈ 1.07 µM), the MIC ([3]; J2206/183B) was 1 µg/mL (≈ 2.14 µM) and the MIC [5] was 1.25 µg/mL (≈ 2.67 µM). For the same compound, the MIC [6] was greater than 80 µg/mL, the MIC [7] was 1.25 µg/mL (≈ 2.67 µM) and the MIC [8] was 0.625 µg/mL (≈ 1.34 µM). It also gave an MIC [9, 37] greater than 80 µg/mL, an MIC [10] of 0.625 µg/mL (≈ 1.34 µM) and an MIC [11] greater than 80 µg/mL. The MIC [12] was greater than 80 µg/mL, the MIC [13] was 2.5 µg/mL (≈ 5.35 µM) and the MIC [14] was 0.625 µg/mL (≈ 1.34 µM). For the same compound, the MIC [15] was greater than 80 µg/mL, the MIC [16, 32] was greater than 80 µg/mL and the MIC [17] was greater than 80 µg/mL. The MIC ([18]; Strep. suis (Group D) SPS11, Diagnostic Sensitivity Test Agar, 18 hours 37° C., read-out: M.I.C.) was 20 µg/mL (≈ 42.8 µM), the MIC ([19]; PA5, 18 h) was 5 µg/mL (≈ 10.7 µM) and the MIC [20] was 1.25 µg/mL (≈ 2.67 µM). The MIC [21] was 0.625 µg/mL (≈ 1.34 µM), the MIC [22] was 1.25 µg/mL (≈ 2.67 µM) and the MIC [23] was 0.025 µg/mL (≈ 0.0535 µM). The MIC [31] was greater than 100 µg/mL, the MIC ([24]; Proteus mirabilis, 889, 18 h) was greater than 100 µg/mL and the MIC [25, 38] was 0.25 µg/mL (≈ 0.535 µM). It also gave an MIC [26, 34] of 0.25 µg/mL (≈ 0.535 µM), an MIC ([27]; 18 h) greater than 100 µg/mL and an MIC [28, 35] of 2.5 µg/mL (≈ 5.35 µM). The MIC [29, 36] was 0.25 µg/mL (≈ 0.535 µM) and the MIC [30] was greater than 100 µg/mL.
`C/C(=C\C(=O)OCCCCCC=NN(C)C)C[C@@H]1OC[C@H](C[C@@H]2O[C@H]2[C@@H](C)[C@H](C)O)[C@@H](O)[C@H]1O` [Example 6, 6-Dimethylhydrazonohexyl monate A] gave an MIC [1] of 0.5 µg/mL (≈ 1.03 µM), a fraction unbound [2] of 0.239 and an MIC ([3]; J2206/183B) of 1 µg/mL (≈ 2.06 µM). The MIC [4] was 2.5 µg/mL (≈ 5.16 µM), the MIC [5] was 0.07 µg/mL (≈ 0.144 µM) and the MIC [6] was greater than 80 µg/mL. The MIC [7] was 0.07 µg/mL (≈ 0.144 µM), the MIC [8] was 2.5 µg/mL (≈ 5.16 µM) and the MIC [9, 37] was 80 µg/mL (≈ 165 µM). The MIC [10] was 0.07 µg/mL (≈ 0.144 µM), the MIC [11] was greater than 80 µg/mL and the MIC [12] was greater than 80 µg/mL. The MIC [13] was 2.5 µg/mL (≈ 5.16 µM), the MIC [14] was 0.312 µg/mL (≈ 0.644 µM) and the MIC [15] was greater than 80 µg/mL. For the same compound, the MIC ([16]; B08, 18 h) was 5 µg/mL (≈ 10.3 µM), the MIC [17] was greater than 80 µg/mL and the MIC ([18]; 18 h) was 20 µg/mL (≈ 41.3 µM). It also gave an MIC [19, 33] of 10 µg/mL (≈ 20.6 µM), an MIC [20] of 0.07 µg/mL (≈ 0.144 µM) and an MIC [21] of 0.312 µg/mL (≈ 0.644 µM). It also gave an MIC [22] of 1.25 µg/mL (≈ 2.58 µM), an MIC [23] of 0.025 µg/mL (≈ 0.0516 µM) and an MIC [31] greater than 100 µg/mL. The MIC ([24]; Proteus mirabilis, 889, 18 h) was greater than 100 µg/mL, the MIC [25, 38] was 0.5 µg/mL (≈ 1.03 µM) and the MIC ([26]; Neisseria, 1502, 18 h) was 0.05 µg/mL (≈ 0.103 µM). It also gave an MIC ([27]; 18 h) greater than 100 µg/mL, an MIC ([28]; 18 h) of 1 µg/mL (≈ 2.06 µM) and an MIC ([29]; Haemophilus influenzae, WY21, 18 h) of 0.5 µg/mL (≈ 1.03 µM). For the same compound, the MIC [30] was greater than 100 µg/mL.
